Reference: ChEMBL document CHEMBL1938379, “Capture hydrolysis signals in the microsomal stability assay: molecular mechanisms of the alkyl ester drug and prodrug metabolism” (Bioorg Med Chem Lett, 2012)

Assay: Clearance in human liver microsomes at 1 uM measured after 60 mins by HPLC analysis
Details: liver microsomes

Compound | microsomal CLint at 1 h, 1 µM [µL/min/mg]
CCOC(=O)[C@H](CCc1ccccc1)N[C@@H](C)C(=O)N1[C@H](C(=O)O)C[C@@H]2CCC[C@@H]21 | 46.1
CCOC(=O)[C@H](CCc1ccccc1)N[C@@H](C)C(=O)N1Cc2ccccc2C[C@H]1C(=O)O | 8.5
CCOC(=O)[C@H](CCc1ccccc1)N[C@@H](C)C(=O)N1CC2(C[C@H]1C(=O)O)SCCS2 | < 8
CC1=C(C(=O)OC(C)C)C(c2cccc([N+](=O)[O-])c2)C(C(=O)OC2CN(C(c3ccccc3)c3ccccc3)C2)=C(N)N1 (centres undefined) [AZELNIDIPINE] | 33.9
CCOC(=O)[C@H](CCc1ccccc1)N[C@H]1CCc2ccccc2N(CC(=O)O)C1=O [BENAZEPRIL] | 52.5
CCOC(=O)COc1ccc2c(C)c(CCN(CC)CC)c(=O)oc2c1 [CHROMONAR] | > 300
CCOC(=O)COc1ccc2c(=O)cc(-c3ccccc3)oc2c1 [EFLOXATE] | > 300
COC(=O)[C@@H]1CC2=CC(=O)CC[C@]2(C)[C@@]23O[C@@H]2C[C@@]2(C)[C@@H](CC[C@@]24CCC(=O)O4)[C@H]13 [EPLERENONE] | 7.9
CCOC(=O)C1(c2ccccc2)CCCN(C)CC1 (centres undefined) [ETHOHEPTAZINE] | 22.6
CCOC(=O)/C=C1\SC(N2CCCCC2)C(=O)N1C (centres undefined) [ETOZOLIN] | 20.5
CCOC(=O)c1ncn2c1CN(C)C(=O)c1cc(F)ccc1-2 [FLUMAZENIL] | 10.6
COC(=O)C1=C(C)NC(C)=C(C(=O)OC(C)C)C1c1cccc2nonc12 (centres undefined) [ISRADIPINE] | > 300
CCOC(=O)C1=C(C)NC(C)=C(C(=O)OCC)C1c1ccccc1/C=C/C(=O)OC(C)(C)C [LACIDIPINE] | 99.2
COC(=O)C1=C(C)NC(C)=C(C(=O)OC(C)(C)CN(C)CCC(c2ccccc2)c2ccccc2)C1c1cccc([N+](=O)[O-])c1 (centres undefined) [LERCANIDIPINE] | 125
COC(=O)C1=C(C)NC(C)=C(C(=O)OCCN2CCN(C(c3ccccc3)c3ccccc3)CC2)C1c1cccc([N+](=O)[O-])c1 (centres undefined) [MANIDIPINE 6300] | 93.4
COC(=O)C(c1ccccc1)C1CCCCN1 (centres undefined) [METHYLPHENIDATE] | 11.1
CCOC(=O)[C@H](CCc1ccccc1)N[C@@H](C)C(=O)N1Cc2cc(OC)c(OC)cc2C[C@H]1C(=O)O [MOEXIPRIL] | < 8
COC(=O)C1=C(C#N)NC(C)=C(C(=O)OC(C)C)C1c1cccc([N+](=O)[O-])c1 (centres undefined) [NILVADIPINE] | 205
COCCOC(=O)C1=C(C)NC(C)=C(C(=O)OC(C)C)C1c1cccc([N+](=O)[O-])c1 (centres undefined) [NIMODIPINE] | > 300
COC(=O)C1=C(C)NC(C)=C(C(=O)OCC(C)C)C1c1ccccc1[N+](=O)[O-] (centres undefined) [NISOLDIPINE] | > 300
CCOC(=O)C1=C(C)NC(C)=C(C(=O)OC)C1c1cccc([N+](=O)[O-])c1 (centres undefined) [NITRENDIPINE] | 166
CCC[C@H](N[C@@H](C)C(=O)N1[C@H](C(=O)O)C[C@@H]2CCCC[C@@H]21)C(=O)OCC [PERINDOPRIL] | 10.7
COC(=O)[C@H]1[C@H]2C[C@@H]3c4[nH]c5cc(OC)ccc5c4CCN3C[C@H]2C[C@@H](OC(=O)c2cc(OC)c(OC)c(OC)c2)[C@@H]1OC [RESERPINE] | 18.3
CCOC(=O)[C@H](CCc1ccccc1)N[C@H]1CS[C@H](c2cccs2)CN(CC(=O)O)C1=O [TEMOCAPRIL] | 133
CCOC(=O)c1c(N)sc2c1CCN(Cc1ccccc1)C2 [TINORIDINE] | 71.2
CC[C@]12CCCN3CCc4c(n(c5ccccc45)[C@@](O)(C(=O)OC)C1)[C@@H]32 [VINCAMINE] | 66
C#C[C@H](CC(=O)OCC)NC(=O)CCC(=O)Nc1ccc(C(=N)N)cc1 [XEMILOFIBAN] | < 8
COC(=O)[C@@H]1[C@H]2C[C@H]3c4[nH]c5ccccc5c4CCN3C[C@@H]2CC[C@@H]1O [YOHIMBINE] | 34.4

Same assay, conditions: microsomes

Compound | microsomal CLint at 1 h, 1 µM [µL/min/mg]
COC(=O)[C@H](c1ccccc1Cl)N1CCc2sccc2C1 [CLOPIDOGREL] | > 300
